Test results reported in patent US12552797B2, “Process for making (3-[cyclopropylethoxy(difluoro)methyl]-6-6[5-fluoro-6-(2,2,2-trifluoroethoxy-3-pyridyl]- [1,2,4]triazolo[4,3-a]pyrazine” (Praxis Precision Medicines, Inc., priority 2019, dated 2026).

Assays:
[1] = Stability of suspension formulations in methylcellulose/Poloxamer 188 vehicles (appearance, concentration, purity, PSD); format: physicochemical; parameters: key to Appearance: *: homogeneous suspension initially, sedimentation occurred over time and returned to homogeneous after gentle agitation for ~1 min; #: viscous homogeneous suspension initially, sedimentation occurred over time and returned to homogeneous after gentle agitation for ~2 mins; settings: 0.5% 400 cP MC, 0.2% Poloxamer 188
Protocol: (§1) As shown in Tables 9-11, various suspension formulations were tested for stability under different conditions.
(§2) To prepare a suspension weigh required amount of milled Compound 1 into a glass container and add corresponding volume of the vehicle. Thoroughly disperse the compound into a homogenous suspension using an overhead mixer at the final concentration target. Concentrations were prepared at 0.1 mg/mL and at 10 mg/mL. The suspension products were physically evaluated on visual appearance, concentration, purity and PSD.
(§3) The vehicles are prepared by dissolving 0.5% by weight of either 400 cP methylcellulose or 4000 cP methylcellulose and 0.2% Poloxamer 188. For the preserved suspensions, additionally 1.0% by volume of paraben preservative solution was dissolved into vehicle using an overhead mixer. The paraben preservative solution was prepared by dissolving 0.10 g methyl paraben, 0.025 g propylparaben in 9.875 g propylene glycol dissolved by mixing with a stir bar at room temperature for 1 hour.

[2] = as above; format: physicochemical; parameters: key: *: homogeneous suspension initially, sedimentation occurred over time and returned to homogeneous after gentle agitation; #: viscous homogeneous suspension initially, sedimentation occurred over time and returned to homogeneous after gentle agitation
Protocol: as §1, §2, §3

[3] = target 0.1 mg/mL, 2-8° C., 14 D
[4] = target 0.1 mg/mL, 2-8° C., 28 D
[5] = target 0.1 mg/mL, 2-8° C., time 0
[6] = target 0.1 mg/mL, 25° C./60% RH, 2 M
[7] = target 0.1 mg/mL, 25° C./60% RH, 3 M
[8] = target 0.1 mg/mL, 25° C./60% RH, 7 D
[9] = target 0.1 mg/mL, 25° C./60% RH, 14 D
[10] = target 0.1 mg/mL, 25° C./60% RH, 28 D
[11] = target 0.1 mg/mL, 25° C./60% RH, time 0
[12] = target 10 mg/mL, 2-8° C., time 0
[13] = target 10 mg/mL, 25° C./60% RH, 2 M
[14] = target 10 mg/mL, 25° C./60% RH, 3 M
[15] = target 10 mg/mL, 25° C./60% RH, 7 D
[16] = target 10 mg/mL, 25° C./60% RH, 14 D
[17] = target 10 mg/mL, 25° C./60% RH, 28 D
[18] = target 10 mg/mL, 25° C./60% RH, time 0

Appearance ([1]; target 0.1 mg/mL, 2-8° C., 2 M): *
Conc. ([1]; target 0.1 mg/mL, 2-8° C., 2 M): 110 µg/mL
PSD (D90) ([1]; target 0.1 mg/mL, 2-8° C., 2 M): 9.1 μm
Purity ([1]; target 0.1 mg/mL, 2-8° C., 2 M): 95.87%
Appearance ([1]; target 0.1 mg/mL, 2-8° C., 3 M): *
Conc. ([1]; target 0.1 mg/mL, 2-8° C., 3 M): 110 µg/mL
PSD (D90) ([1]; target 0.1 mg/mL, 2-8° C., 3 M): 12.7 μm
Purity ([1]; target 0.1 mg/mL, 2-8° C., 3 M): 93.20%
Appearance ([1]; target 0.1 mg/mL, 2-8° C., 7 D): *
Conc. ([1]; target 0.1 mg/mL, 2-8° C., 7 D): 120 µg/mL
PSD (D90) ([1]; target 0.1 mg/mL, 2-8° C., 7 D): 18.2 μm
Purity ([1]; target 0.1 mg/mL, 2-8° C., 7 D): 100%
Appearance [1, 3]: *
Conc. [1, 3]: 110 µg/mL
PSD (D90) [1, 3]: 14.2 μm
Purity [1, 3]: 100%
Appearance [1, 4]: *
Conc. [1, 4]: 110 µg/mL
PSD (D90) [1, 4]: 15.4 μm
Purity [1, 4]: 100%
Appearance [1, 5]: *
Conc. [1, 5]: 110 µg/mL
PSD (D90) [1, 5]: 19.9 μm
Purity [1, 5]: 100%
Appearance [1, 6]: *
Conc. [1, 6]: 110 µg/mL
PSD (D90) [1, 6]: 8.6 μm
Purity [1, 6]: 95.87%
Appearance [1, 7]: *
Conc. [1, 7]: 110 µg/mL
PSD (D90) [1, 7]: 11.1 μm
Purity [1, 7]: 93.20%
Appearance [1, 8]: *
Conc. [1, 8]: 110 µg/mL
PSD (D90) [1, 8]: 19.9 μm
Purity [1, 8]: 100.0%
Appearance [1, 9]: *
Conc. [1, 9]: 110 µg/mL
PSD (D90) [1, 9]: 12.9 μm
Purity [1, 9]: 100%
Appearance [1, 10]: *
Conc. [1, 10]: 100 µg/mL
PSD (D90) [1, 10]: 8.7 μm
Purity [1, 10]: 100%
Appearance [1, 11]: *
Conc. [1, 11]: 110 µg/mL
PSD (D90) [1, 11]: 19.9 μm
Purity [1, 11]: 100.0%
Appearance ([1]; target 10 mg/mL, 2-8° C., 2 M): *
Conc. ([1]; target 10 mg/mL, 2-8° C., 2 M): 10990 µg/mL
PSD (D90) ([1]; target 10 mg/mL, 2-8° C., 2 M): 4.0 μm
Purity ([1]; target 10 mg/mL, 2-8° C., 2 M): 99.83%
Appearance ([1]; target 10 mg/mL, 2-8° C., 3 M): *
Conc. ([1]; target 10 mg/mL, 2-8° C., 3 M): 10130 µg/mL
PSD (D90) ([1]; target 10 mg/mL, 2-8° C., 3 M): 3.6 μm
Purity ([1]; target 10 mg/mL, 2-8° C., 3 M): 99.83%
Appearance ([1]; target 10 mg/mL, 2-8° C., 7 D): *
Conc. ([1]; target 10 mg/mL, 2-8° C., 7 D): 10180 µg/mL
PSD (D90) ([1]; target 10 mg/mL, 2-8° C., 7 D): 6.4 μm
Purity ([1]; target 10 mg/mL, 2-8° C., 7 D): 99.83%
Appearance ([1]; target 10 mg/mL, 2-8° C., 14 D): *
Conc. ([1]; target 10 mg/mL, 2-8° C., 14 D): 10660 µg/mL
PSD (D90) ([1]; target 10 mg/mL, 2-8° C., 14 D): 5.4 μm
Purity ([1]; target 10 mg/mL, 2-8° C., 14 D): 99.83%
Appearance ([1]; target 10 mg/mL, 2-8° C., 28 D): *
Conc. ([1]; target 10 mg/mL, 2-8° C., 28 D): 10560 µg/mL
PSD (D90) ([1]; target 10 mg/mL, 2-8° C., 28 D): 3.8 μm
Purity ([1]; target 10 mg/mL, 2-8° C., 28 D): 99.83%
Appearance [1, 12]: *
Conc. [1, 12]: 10040 µg/mL
PSD (D90) [1, 12]: 5.6 μm
Purity [1, 12]: 99.83%
Appearance [1, 13]: *
Conc. [1, 13]: 10470 µg/mL
PSD (D90) [1, 13]: 4.3 μm
Purity [1, 13]: 99.83%
Appearance [1, 14]: *
Conc. [1, 14]: 10160 µg/mL
PSD (D90) [1, 14]: 3.5 μm
Purity [1, 14]: 99.83%
Appearance [1, 15]: *
Conc. [1, 15]: 10480 µg/mL
PSD (D90) [1, 15]: 6.3 μm
Purity [1, 15]: 99.83%
Appearance [1, 16]: *
Conc. [1, 16]: 9850 µg/mL
PSD (D90) [1, 16]: 5.2 μm
Purity [1, 16]: 99.83%
Appearance [1, 17]: *
Conc. [1, 17]: 10000 µg/mL
PSD (D90) [1, 17]: 4.6 μm
Purity [1, 17]: 99.83%
Appearance [1, 18]: *
Conc. [1, 18]: 10040 µg/mL
PSD (D90) [1, 18]: 5.6 μm
Purity [1, 18]: 99.83%
Visual Appearance ([2]; 0.5% 400 cP MC, 0.2% Poloxamer 188, 0.1 mg/mL, 1 h at RT): *
Visual Appearance ([2]; 0.5% 400 cP MC, 0.2% Poloxamer 188, 0.1 mg/mL, 4 h at RT): *
Visual Appearance ([2]; 0.5% 400 cP MC, 0.2% Poloxamer 188, 0.1 mg/mL, 24 h at RT): *
Visual Appearance ([2]; 0.5% 400 cP MC, 0.2% Poloxamer 188, 10 mg/mL, 1 h at RT): *
Visual Appearance ([2]; 0.5% 400 cP MC, 0.2% Poloxamer 188, 10 mg/mL, 4 h at RT): *
Visual Appearance ([2]; 0.5% 400 cP MC, 0.2% Poloxamer 188, 10 mg/mL, 24 h at RT): *
Visual Appearance ([2]; 0.5% 400 cP MC, 0.2% Poloxamer 188 and 1.0% of paraben preservative solution, 0.1 mg/mL, 1 h at RT): *
Visual Appearance ([2]; 0.5% 400 cP MC, 0.2% Poloxamer 188 and 1.0% of paraben preservative solution, 0.1 mg/mL, 4 h at RT): *
Visual Appearance ([2]; 0.5% 400 cP MC, 0.2% Poloxamer 188 and 1.0% of paraben preservative solution, 0.1 mg/mL, 24 h at RT): *
Visual Appearance ([2]; 0.5% 400 cP MC, 0.2% Poloxamer 188 and 1.0% of paraben preservative solution, 10 mg/mL, 1 h at RT): *
Visual Appearance ([2]; 0.5% 400 cP MC, 0.2% Poloxamer 188 and 1.0% of paraben preservative solution, 10 mg/mL, 4 h at RT): *
Visual Appearance ([2]; 0.5% 400 cP MC, 0.2% Poloxamer 188 and 1.0% of paraben preservative solution, 10 mg/mL, 24 h at RT): *
Visual Appearance ([2]; 0.5% 4000 cP MC, 0.2% Poloxamer 188, 0.1 mg/mL, 1 h at RT): #
Visual Appearance ([2]; 0.5% 4000 cP MC, 0.2% Poloxamer 188, 0.1 mg/mL, 4 h at RT): #
Visual Appearance ([2]; 0.5% 4000 cP MC, 0.2% Poloxamer 188, 0.1 mg/mL, 24 h at RT): #
Visual Appearance ([2]; 0.5% 4000 cP MC, 0.2% Poloxamer 188, 10 mg/mL, 1 h at RT): #
Visual Appearance ([2]; 0.5% 4000 cP MC, 0.2% Poloxamer 188, 10 mg/mL, 4 h at RT): #
Visual Appearance ([2]; 0.5% 4000 cP MC, 0.2% Poloxamer 188, 10 mg/mL, 24 h at RT): #
Visual Appearance ([2]; 0.5% 4000 cP MC, 0.2% Poloxamer 188 and 1.0% of paraben preservative solution, 0.1 mg/mL, 1 h at RT): #
Visual Appearance ([2]; 0.5% 4000 cP MC, 0.2% Poloxamer 188 and 1.0% of paraben preservative solution, 0.1 mg/mL, 4 h at RT): #
Visual Appearance ([2]; 0.5% 4000 cP MC, 0.2% Poloxamer 188 and 1.0% of paraben preservative solution, 0.1 mg/mL, 24 h at RT): #
Visual Appearance ([2]; 0.5% 4000 cP MC, 0.2% Poloxamer 188 and 1.0% of paraben preservative solution, 10 mg/mL, 1 h at RT): #
Visual Appearance ([2]; 0.5% 4000 cP MC, 0.2% Poloxamer 188 and 1.0% of paraben preservative solution, 10 mg/mL, 4 h at RT): #
Visual Appearance ([2]; 0.5% 4000 cP MC, 0.2% Poloxamer 188 and 1.0% of paraben preservative solution, 10 mg/mL, 24 h at RT): #
Compound: CCOC(F)(F)c1nnc2cnc(-c3cnc(OCC(F)(F)F)c(F)c3)cn12 [Compound 1, 3-(ethoxydifluoromethyl)-6-(5-fluoro-6-(2,2,2-trifluoroethoxy)pyridin-3-yl)-[1,2,4]triazolo[4,3-a]pyrazine]
